Experimental data: US9339486B2, “Heterocyclic modulators of cannabinoid receptors” (THE CLEVELAND CLINIC FOUNDATION, priority 2008, dated 2016)

Molecular target: CB1 (Homo sapiens (Human), UniProt P21554)
Assay: CB1 Binding Assay ([3H]CP 55940, cell membrane homogenates)
Protocol: After being incubated, the samples were filtered rapidly under vacuum through glass fiber filters (GF/B; Packard) presoaked with 0.3% PEI and rinsed several times with ice-cold buffer containing 50 mM Tris HCl (pH 7.4) and 0.5% BSA using a 96-sample cell harvester (Unifilter; Packard). The filters were dried then counted for radioactivity in a scintillation counter (Topcount; Packard) using a scintillation cocktail (Microscint 0; Packard). The results were expressed as a percentage of the inhibition of the control radioligand-specific binding. The reference standard compounds were tested in each experiment at several concentrations to obtain a competition curve from which its IC50 was calculated.

[1] = CB1, test concentration 1.0E−05 (MD)

Sequence of CB1 (P21554 whole entry): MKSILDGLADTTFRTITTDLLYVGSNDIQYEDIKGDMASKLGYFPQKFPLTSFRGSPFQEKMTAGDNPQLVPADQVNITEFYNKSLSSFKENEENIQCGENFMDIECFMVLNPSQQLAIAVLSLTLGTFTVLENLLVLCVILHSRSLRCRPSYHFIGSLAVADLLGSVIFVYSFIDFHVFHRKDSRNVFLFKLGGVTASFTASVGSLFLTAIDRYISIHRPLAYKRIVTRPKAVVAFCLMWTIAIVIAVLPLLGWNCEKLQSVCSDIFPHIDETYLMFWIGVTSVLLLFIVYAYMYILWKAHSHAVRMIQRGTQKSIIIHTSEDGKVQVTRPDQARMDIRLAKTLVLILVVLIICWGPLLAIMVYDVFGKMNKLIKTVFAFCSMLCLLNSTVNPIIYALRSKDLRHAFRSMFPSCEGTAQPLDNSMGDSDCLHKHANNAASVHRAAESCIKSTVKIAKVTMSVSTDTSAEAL

CC1(Cc2ccccc2)COc2cc(C(=O)N3CCCCC3)ccc21 (centres unmarked) [Example 3, 3-benzyl-3-methyl-2,3-dihydrobenzofuran-6-carboxylic acid-piperidine amide]
% Inhibition of Control Specific Binding [1]: 71% | % of Control Specific Binding Mean [1]: 29% | % of Control Specific Binding 1st (CB1, test concentration 1.0E−05 (MD), first replicate): 22% | % of Control Specific Binding 2nd (CB1, test concentration 1.0E−05 (MD), second replicate): 36% | % Inhibition of Control Specific Binding CB1 (as repeated in Table 3): 71%
